Earlier results on one molecule are cited in patent US10981928B2, “Methods of making low odor choline salts of an organic compound” (HALO LIFE SCIENCE, LLC, priority 2016, dated 2021).

Converted amounts (≈) assume the structure as drawn.

The conditions of data set [1]: PEG 400 at 37° C.; comparison value.
The conditions of data set [2]: comparison value.

Consider `O=c1oc2c(O)c(O)cc3c(=O)oc4c(O)c(O)cc1c4c23` [ellagic acid], for which the “solubility in PEG 400” value in data set [1] is 8000 µg/mL (≈ 26.5 mM). For the same molecule, the solubility in water in data set [2] was ~4 µg/mL (≈ 0.0132 mM).
